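In this assay, cells in 96-well plates receive the compound at five concentrations for 48 hours. Endpoints are linearly interpolated between the surrounding concentrations. TGI is the concentration that stops growth completely.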
Assays:
Assay in all cases: DTP human tumour cell line panel, 48 h
M14 melanoma = test system: M14 melanoma
SNB-78 CNS = test system: SNB-78 CNS
RPMI-8226 leukemia = test system: RPMI-8226 leukemia
SNB-75 CNS = test system: SNB-75 CNS
SN12C renal = test system: SN12C renal
DMS 273 small cell lung = test system: DMS 273 small cell lung
MALME-3M melanoma = test system: MALME-3M melanoma
OVCAR-4 ovarian = test system: OVCAR-4 ovarian
HCT-116 colon = test system: HCT-116 colon
HOP-18 NSCLC = test system: HOP-18 NSCLC
OVCAR-5 ovarian = test system: OVCAR-5 ovarian
UO-31 renal = test system: UO-31 renal
786-0 renal = test system: 786-0 renal
LOX IMVI melanoma = test system: LOX IMVI melanoma
EKVX NSCLC = test system: EKVX NSCLC
NCI-H522 lung = test system: NCI-H522 lung
K-562 leukemia = test system: K-562 leukemia
NCI-H226 lung = test system: NCI-H226 lung
KM12 colon = test system: KM12 colon
HOP-62 NSCLC = test system: HOP-62 NSCLC
UACC-257 melanoma = test system: UACC-257 melanoma
SK-OV-3 ovarian = test system: SK-OV-3 ovarian
HL-60(TB) leukemia = test system: HL-60(TB) leukemia
SF-268 CNS = test system: SF-268 CNS
SF-539 CNS = test system: SF-539 CNS
SR leukemia = test system: SR leukemia
A549 NSCLC = test system: A549 NSCLC
NCI-H23 lung = test system: NCI-H23 lung
XF 498 CNS = test system: XF 498 CNS
MOLT-4 leukemia = test system: MOLT-4 leukemia
LXFL 529 NSCLC = test system: LXFL 529 NSCLC
UACC-62 melanoma = test system: UACC-62 melanoma
HT29 colon = test system: HT29 colon
CCRF-CEM leukemia = test system: CCRF-CEM leukemia
SF-295 CNS = test system: SF-295 CNS
SK-MEL-5 melanoma = test system: SK-MEL-5 melanoma
SK-MEL-28 melanoma = test system: SK-MEL-28 melanoma
M19-MEL melanoma = test system: M19-MEL melanoma
HCC-2998 colon = test system: HCC-2998 colon
SK-MEL-2 melanoma = test system: SK-MEL-2 melanoma
SW-620 colon = test system: SW-620 colon
IGROV1 ovarian = test system: IGROV1 ovarian
DLD-1 colon = test system: DLD-1 colon
COLO 205 colon = test system: COLO 205 colon
OVCAR-3 ovarian = test system: OVCAR-3 ovarian
HCT-15 colon = test system: HCT-15 colon
OVCAR-8 ovarian = test system: OVCAR-8 ovarian
TK-10 renal = test system: TK-10 renal
DMS 114 small cell lung = test system: DMS 114 small cell lung
SNB-19 CNS = test system: SNB-19 CNS
ACHN renal = test system: ACHN renal
U251 CNS = test system: U251 CNS
CAKI-1 renal = test system: CAKI-1 renal
NCI-H460 lung = test system: NCI-H460 lung
KM20L2 colon = test system: KM20L2 colon
HOP-92 NSCLC = test system: HOP-92 NSCLC
A498 renal = test system: A498 renal

## COC(OC)c1cccc2c1C(=O)CCC1(O)c3ccccc3C1C2 (stereo not given)
M14 melanoma
  TGI: > 100 µM
SNB-78 CNS
  TGI: > 100 µM
RPMI-8226 leukemia
  TGI: 69.8 µM
SNB-75 CNS
  TGI: > 100 µM
SN12C renal
  TGI: > 100 µM
DMS 273 small cell lung
  TGI: > 100 µM
MALME-3M melanoma
  TGI: > 100 µM
OVCAR-4 ovarian
  TGI: > 100 µM
HCT-116 colon
  TGI: > 100 µM
HOP-18 NSCLC
  TGI: > 100 µM
OVCAR-5 ovarian
  TGI: > 100 µM
UO-31 renal
  TGI: > 100 µM
786-0 renal
  TGI: > 100 µM
LOX IMVI melanoma
  TGI: > 100 µM
EKVX NSCLC
  TGI: > 100 µM
NCI-H522 lung
  TGI: > 100 µM
K-562 leukemia
  TGI: > 100 µM
NCI-H226 lung
  TGI: > 100 µM
KM12 colon
  TGI: > 100 µM
HOP-62 NSCLC
  TGI: > 100 µM
UACC-257 melanoma
  TGI: > 100 µM
SK-OV-3 ovarian
  TGI: > 100 µM
HL-60(TB) leukemia
  TGI: > 100 µM
SF-268 CNS
  TGI: > 100 µM
SF-539 CNS
  TGI: > 100 µM
SR leukemia
  TGI: > 100 µM
A549 NSCLC
  TGI: > 100 µM
NCI-H23 lung
  TGI: > 100 µM
XF 498 CNS
  TGI: > 100 µM
MOLT-4 leukemia
  TGI: > 100 µM
LXFL 529 NSCLC
  TGI: > 100 µM
UACC-62 melanoma
  TGI: > 100 µM
HT29 colon
  TGI: > 100 µM
CCRF-CEM leukemia
  TGI: > 100 µM
SF-295 CNS
  TGI: > 100 µM
SK-MEL-5 melanoma
  TGI: > 100 µM
SK-MEL-28 melanoma
  TGI: > 100 µM
M19-MEL melanoma
  TGI: > 100 µM
HCC-2998 colon
  TGI: > 100 µM
SK-MEL-2 melanoma
  TGI: > 100 µM
SW-620 colon
  TGI: > 100 µM
IGROV1 ovarian
  TGI: > 100 µM
DLD-1 colon
  TGI: > 100 µM
COLO 205 colon
  TGI: > 100 µM
OVCAR-3 ovarian
  TGI: > 100 µM
HCT-15 colon
  TGI: > 100 µM
OVCAR-8 ovarian
  TGI: > 100 µM
TK-10 renal
  TGI: > 100 µM
DMS 114 small cell lung
  TGI: > 100 µM
SNB-19 CNS
  TGI: > 100 µM

## Nc1nc(SCCNC(=O)CCc2ccc(O)cc2)nc2c1ncn2C1OC(CO)C(O)C1O (stereo not given)
M14 melanoma
  TGI: > 203 µM
SNB-78 CNS
  TGI: > 203 µM
ACHN renal
  TGI: > 203 µM
RPMI-8226 leukemia
  TGI: > 203 µM
SNB-75 CNS
  TGI: > 203 µM
SN12C renal
  TGI: > 203 µM
DMS 273 small cell lung
  TGI: > 203 µM
MALME-3M melanoma
  TGI: > 203 µM
OVCAR-4 ovarian
  TGI: > 203 µM
HCT-116 colon
  TGI: > 203 µM
U251 CNS
  TGI: > 203 µM
HOP-18 NSCLC
  TGI: > 203 µM
OVCAR-5 ovarian
  TGI: > 203 µM
CAKI-1 renal
  TGI: > 203 µM
UO-31 renal
  TGI: > 203 µM
NCI-H460 lung
  TGI: > 203 µM
786-0 renal
  TGI: > 203 µM
LOX IMVI melanoma
  TGI: > 203 µM
NCI-H522 lung
  TGI: > 203 µM
K-562 leukemia
  TGI: > 203 µM
NCI-H226 lung
  TGI: > 203 µM
KM12 colon
  TGI: > 203 µM
KM20L2 colon
  TGI: > 203 µM
HOP-62 NSCLC
  TGI: > 203 µM
UACC-257 melanoma
  TGI: > 203 µM
SK-OV-3 ovarian
  TGI: > 203 µM
HL-60(TB) leukemia
  TGI: > 203 µM
SF-268 CNS
  TGI: > 203 µM
SF-539 CNS
  TGI: > 203 µM
SR leukemia
  TGI: > 203 µM
A549 NSCLC
  TGI: > 203 µM
NCI-H23 lung
  TGI: > 203 µM
XF 498 CNS
  TGI: > 203 µM
MOLT-4 leukemia
  TGI: > 203 µM
UACC-62 melanoma
  TGI: > 203 µM
HT29 colon
  TGI: > 203 µM
CCRF-CEM leukemia
  TGI: > 203 µM
SF-295 CNS
  TGI: > 203 µM
SK-MEL-5 melanoma
  TGI: > 203 µM
SK-MEL-28 melanoma
  TGI: > 203 µM
M19-MEL melanoma
  TGI: > 203 µM
HCC-2998 colon
  TGI: > 203 µM
SK-MEL-2 melanoma
  TGI: > 203 µM
HOP-92 NSCLC
  TGI: > 203 µM
SW-620 colon
  TGI: > 203 µM
IGROV1 ovarian
  TGI: > 203 µM
A498 renal
  TGI: > 203 µM
DLD-1 colon
  TGI: > 203 µM
COLO 205 colon
  TGI: > 203 µM
OVCAR-3 ovarian
  TGI: > 203 µM
HCT-15 colon
  TGI: > 203 µM
OVCAR-8 ovarian
  TGI: > 203 µM
TK-10 renal
  TGI: > 203 µM
DMS 114 small cell lung
  TGI: > 203 µM
SNB-19 CNS
  TGI: > 203 µM

Source: PubChem BioAssay (NCI)
